From patent publication US9708314B2, “Heterocyclic amide compound” (NISSAN CHEMICAL INDUSTRIES, LTD., priority 2013, dated 2017)

Legend:
Assay type in all cases: in vivo
Triticum aestivum = test: Test Example 4: effect on crop by application to foliage (diluvial soil, plastic box); details: for e (Triticum aestivum) effect on crop: application to foliage, application herbicide amount 320 g/ha; for e: Application herbicide amount 320 g/ha, effect on crop
In short: (§1)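 Plants were grown in sterilized diluvial soil in a greenhouse at 25-30° C for 14 days, then sprayed on stems and leaves with water-diluted emulsion formulation at set rates in g/ha. Weed control and crop injury were scored 3 weeks after treatment on a 0-5 herbicidal-ratio scale, from 0 (≤5%) to 5 (≥90%).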

Brassica campestris L. = test: as above; details: for g (Brassica campestris L.) effect on crop: application to foliage, application herbicide amount 320 g/ha; for g: Application herbicide amount 320 g/ha, effect on crop
In short: as §1

Glycine max = test: as above; details: for c (Glycine max) effect on crop: application to foliage, application herbicide amount 320 g/ha; for c: Application herbicide amount 320 g/ha, effect on crop
In short: as §1

[1] = test system: directly sowed Oryza sativa; test: as above; details: for d (directly sowed Oryza sativa) effect on crop: application to foliage, application herbicide amount 320 g/ha; for d: Application herbicide amount 320 g/ha, effect on crop
In short: as §1

Zea mays = test: as above; details: for b (Zea mays) effect on crop: application to foliage, application herbicide amount 320 g/ha; for b: Application herbicide amount 320 g/ha, effect on crop
In short: as §1

[2] = test system: Beta vulgaris ssp. vulgaris; test: as above; details: for f (Beta vulgaris ssp. vulgaris) effect on crop: application to foliage, application herbicide amount 320 g/ha; for f: Application herbicide amount 320 g/ha, effect on crop
In short: as §1

[3] = test system: Echinochloa crus-galli var. crus-galli; test: Test Example 4: herbicidal effect by application to foliage (diluvial soil, plastic box); details: for H (Echinochloa crus-galli var. crus-galli) herbicidal effect: application to foliage, application herbicide amount 320 g/ha; for H: Application herbicide amount 320 g/ha
In short: as §1

Veronica persica = test: as above; details: for R (Veronica persica) herbicidal effect: application to foliage, application herbicide amount 320 g/ha
In short: as §1

Avena fatua = test: as above; details: for I (Avena fatua) herbicidal effect: application to foliage, application herbicide amount 320 g/ha; for I: Application herbicide amount 320 g/ha
In short: as §1

Setaria viridis = test: as above; details: for G (Setaria viridis) herbicidal effect: application to foliage, application herbicide amount 320 g/ha; for G: Application herbicide amount 320 g/ha
In short: as §1

Abutilon theophrasti = test: as above; details: for M (Abutilon theophrasti) herbicidal effect: application to foliage, application herbicide amount 320 g/ha; for M: Application herbicide amount 320 g/ha
In short: as §1

Chenopodium album = test: as above; details: for O (Chenopodium album) herbicidal effect: application to foliage, application herbicide amount 320 g/ha; for O: Application herbicide amount 320 g/ha
In short: as §1

Alopecurus myosuroides = test: as above; details: for J (Alopecurus myosuroides) herbicidal effect: application to foliage, application herbicide amount 320 g/ha; for J: Application herbicide amount 320 g/ha
In short: as §1

Lolium multiflorum Lam. = test: as above; details: for K (Lolium multiflorum Lam.) herbicidal effect: application to foliage, application herbicide amount 320 g/ha; for K: Application herbicide amount 320 g/ha
In short: as §1

Apera spica-venti. = test: as above; details: for L (Apera spica-venti.) herbicidal effect: application to foliage, application herbicide amount 320 g/ha
In short: as §1

[4] = test system: Echinochloa oryzacola Vasing.; test: Test Example 2: herbicidal activity, application during weed generation in submerged conditions; details: Eighteenth Table
From the text: (§2) 5 Herbicidal ratio of 90% or more (almost completely withered) 4 Herbicidal ratio of 70% or more and less than 90% 3 Herbicidal ratio of 40% or more and less than 70% 2 Herbicidal ratio of 20% or more and less than 40% 1 Herbicidal ratio of 5% or more and less than 20% 0 Herbicidal ratio of 5% or less (almost no effect) [Test Example 2] Herbicidal Activity Test by Application During Weed Generation in Submerged Conditions After alluvial soil was placed into 1/10000 are of Wagner pot, water was poured and mixed to form a submerged condition having a water depth of 4 cm. Seeds of Echinochloa oryzacola Vasing., Scirpus juncoides, and Monochoria vaginalis were sowed in a mixed manner in the above pot and the pot was placed in the greenhouse of 25° C. to 30° C. to grow the plants. When Echinochloa oryzacola Vasing., Scirpus juncoides, and Monochoria vaginalis were grown to one leaf stage to two leaf stage, the emulsion agent containing the compound of the present invention prepared in accordance with Formulation Example 2 was diluted with water so as to be a predetermined herbicide amount and the diluted compound was applied to the surface of the water. Three weeks after the herbicide application, effects on each plant were investigated in accordance with the criteria of Test Example 1. A: Echinochloa oryzicola Vasing., B: Scirpus juncoides, C: Monochoria vaginalis, D: Leptochloa chinensis, E: Cyperus difformis, F: Digitaria ciliaris, G: Setaria viridis, H: Echinochloa crus-galli var. crus-galli, I: Avena fatua, J: Alopecurus myosuroides, K: Lolium multiflorum Lam., L: Apera spica-venti., M: Abutilon theophrasti, N: Amaranthus retroflexus, O: Chenopodium album, P: Stellaria media, Q: Galium spurium, R: Veronica persica, a: transplanted Oryza sativa, b: directly sowed Oryza sativa, c: Zea mays, d: Glycine max, e: Triticum aestivum, f: Beta vulgaris ssp. vulgaris, and g: Brassica campestris L. The application herbicide amount (g/ha) means an amount that a concentration is adjusted so that, when an application amount is converted into per hectare (1 ha), the herbicide is applied by the number of grams (g) of the described value.

Scirpus juncoides = test: as above; details: Eighteenth Table
From the text: as §2

Monochoria vaginalis = test: as above; details: Eighteenth Table
From the text: as §2

[5] = application herbicide amount 320 g/ha
[6] = Application herbicide amount 320 g/ha
[7] = Application herbicide amount 288 g/ha, foliage application
[8] = application herbicide amount 288 g/ha

Row | SMILES | e (Triticum aestivum) effect on crop (Triticum aestivum) | g (Brassica campestris L.) effect on crop (Brassica campestris L.) | c (Glycine max) effect on crop (Glycine max) | d (directly sowed Oryza sativa) effect on crop [1] | b (Zea mays) effect on crop (Zea mays) | f (Beta vulgaris ssp. vulgaris) effect on crop [2] | H (Echinochloa crus-galli var. crus-galli) herbicidal effect [3] | R (Veronica persica) herbicidal effect (Veronica persica) | I (Avena fatua) herbicidal effect (Avena fatua) | G (Setaria viridis) herbicidal effect (Setaria viridis) | M (Abutilon theophrasti) herbicidal effect (Abutilon theophrasti) | O (Chenopodium album) herbicidal effect (Chenopodium album) | J (Alopecurus myosuroides) herbicidal effect (Alopecurus myosuroides) | K (Lolium multiflorum Lam.) herbicidal effect (Lolium multiflorum Lam.) | L (Apera spica-venti.) herbicidal effect (Apera spica-venti.) | A (Echinochloa oryzicola Vasing.) herbicidal ratio grade [4, 5] | B (Scirpus juncoides) herbicidal ratio grade (Scirpus juncoides; [5]) | e (Triticum aestivum) | g (Brassica campestris L.) | c (Glycine max) | also measured
1 | Cc1nnc(NC(=O)c2ccc(C(F)(F)F)n3c(S(C)(=O)=O)nnc23)o1 [1-040] | 3 (Herbicidal ratio of 40% or more and less than 70%) | 1 (Herbicidal ratio of 5% or more and less than 20%) | 0 (Herbicidal ratio of 5% or less (almost no effect)) | 1 (Herbicidal ratio of 5% or more and less than 20%) | 0 (Herbicidal ratio of 5% or less (almost no effect)) | 5 (Herbicidal ratio of 90% or more (almost completely withered)) | 4 (Herbicidal ratio of 70% or more and less than 90%) | 5 (Herbicidal ratio of 90% or more (almost completely withered)) | 3 (Herbicidal ratio of 40% or more and less than 70%) | 4 (Herbicidal ratio of 70% or more and less than 90%) | 5 (Herbicidal ratio of 90% or more (almost completely withered)) | 5 (Herbicidal ratio of 90% or more (almost completely withered)) | 3 (Herbicidal ratio of 40% or more and less than 70%) | 3 (Herbicidal ratio of 40% or more and less than 70%) | 4 (Herbicidal ratio of 70% or more and less than 90%) | 3 (Herbicidal ratio of 40% or more and less than 70%) | 2 (Herbicidal ratio of 20% or more and less than 40%) | – | – | – | –
2 | CCS(=O)(=O)c1nnc2c(C(=O)Nc3nnc(C)o3)ccc(C(F)(F)F)n12 [1-041] | 3 (Herbicidal ratio of 40% or more and less than 70%) | 0 (Herbicidal ratio of 5% or less (almost no effect)) | 0 (Herbicidal ratio of 5% or less (almost no effect)) | 2 (Herbicidal ratio of 20% or more and less than 40%) | 0 (Herbicidal ratio of 5% or less (almost no effect)) | 5 (Herbicidal ratio of 90% or more (almost completely withered)) | 5 (Herbicidal ratio of 90% or more (almost completely withered)) | 4 (Herbicidal ratio of 70% or more and less than 90%) | 3 (Herbicidal ratio of 40% or more and less than 70%) | 4 (Herbicidal ratio of 70% or more and less than 90%) | 5 (Herbicidal ratio of 90% or more (almost completely withered)) | 5 (Herbicidal ratio of 90% or more (almost completely withered)) | 1 (Herbicidal ratio of 5% or more and less than 20%) | 2 (Herbicidal ratio of 20% or more and less than 40%) | 4 (Herbicidal ratio of 70% or more and less than 90%) | 2 (Herbicidal ratio of 20% or more and less than 40%) | 3 (Herbicidal ratio of 40% or more and less than 70%) | – | – | – | –
3 | Cc1nnc(NC(=O)c2ccc(C(F)(F)F)n3c(C(C)[S+](C)[O-])nnc23)o1 (stereo not drawn) [1-079] | – | – | – | – | – | – | – | – | – | – | – | – | – | – | – | 4 (Herbicidal ratio of 70% or more and less than 90%) | 3 (Herbicidal ratio of 40% or more and less than 70%) | 4 (Herbicidal ratio of 70% or more and less than 90%) | 5 (Herbicidal ratio of 90% or more (almost completely withered)) | 1 (Herbicidal ratio of 5% or more and less than 20%) | d [1]: 5 (Herbicidal ratio of 90% or more (almost completely withered)); b (Zea mays): 4 (Herbicidal ratio of 70% or more and less than 90%); f [2]: 5 (Herbicidal ratio of 90% or more (almost completely withered)); H [3]: 5 (Herbicidal ratio of 90% or more (almost completely withered)); I (Avena fatua): 4 (Herbicidal ratio of 70% or more and less than 90%); G (Setaria viridis): 5 (Herbicidal ratio of 90% or more (almost completely withered)); M (Abutilon theophrasti): 5 (Herbicidal ratio of 90% or more (almost completely withered)); O (Chenopodium album): 5 (Herbicidal ratio of 90% or more (almost completely withered)); J (Alopecurus myosuroides): 2 (Herbicidal ratio of 20% or more and less than 40%); K (Lolium multiflorum Lam.): 3 (Herbicidal ratio of 40% or more and less than 70%); C (Monochoria vaginalis) herbicidal ratio grade (Monochoria vaginalis; [5]): 4 (Herbicidal ratio of 70% or more and less than 90%)
4 | CCCSc1nnc2c(C(=O)Nc3nnc(C)o3)ccc(C(F)(F)F)n12 [1-087] | – | – | – | – | – | – | – | – | – | – | – | – | – | – | – | 4 (Herbicidal ratio of 70% or more and less than 90%) | – | 2 (Herbicidal ratio of 20% or more and less than 40%) | 4 (Herbicidal ratio of 70% or more and less than 90%) | 4 (Herbicidal ratio of 70% or more and less than 90%) | d [1]: 4 (Herbicidal ratio of 70% or more and less than 90%); b (Zea mays): 0 (Herbicidal ratio of 5% or less (almost no effect)); f [2]: 5 (Herbicidal ratio of 90% or more (almost completely withered)); H [3]: 5 (Herbicidal ratio of 90% or more (almost completely withered)); R (Veronica persica; [6]): 4 (Herbicidal ratio of 70% or more and less than 90%); I (Avena fatua): 3 (Herbicidal ratio of 40% or more and less than 70%); G (Setaria viridis): 5 (Herbicidal ratio of 90% or more (almost completely withered)); M (Abutilon theophrasti): 5 (Herbicidal ratio of 90% or more (almost completely withered)); O (Chenopodium album): 5 (Herbicidal ratio of 90% or more (almost completely withered)); J (Alopecurus myosuroides): 3 (Herbicidal ratio of 40% or more and less than 70%); K (Lolium multiflorum Lam.): 1 (Herbicidal ratio of 5% or more and less than 20%); L (Apera spica-venti.; [6]): 2 (Herbicidal ratio of 20% or more and less than 40%); C (Monochoria vaginalis) herbicidal ratio grade (Monochoria vaginalis; [5]): 3 (Herbicidal ratio of 40% or more and less than 70%)
5 | C=CCSc1nnc2c(C(=O)Nc3nnco3)ccc(C(F)(F)F)n12 [1-128] | – | – | – | – | – | – | – | – | – | – | – | – | – | – | – | – | – | – | – | – | e (Triticum aestivum) effect on crop grade (Triticum aestivum; [7]): 1 (Herbicidal ratio of 5% or more and less than 20%); g (Brassica campestris L.) effect on crop grade (Brassica campestris L.; [7]): 3 (Herbicidal ratio of 40% or more and less than 70%); d (Glycine max) effect on crop grade (Glycine max; [7]): 3 (Herbicidal ratio of 40% or more and less than 70%); c (Zea mays) effect on crop grade (Zea mays; [7]): 0 (Herbicidal ratio of 5% or less (almost no effect)); f (Beta vulgaris ssp. vulgaris) effect on crop grade [2, 7]: 5 (Herbicidal ratio of 90% or more (almost completely withered)); H (Echinochloa crus-galli var. crus-galli) herbicidal effect grade [3, 7]: 5 (Herbicidal ratio of 90% or more (almost completely withered)); R (Veronica persica) herbicidal effect grade (Veronica persica; [7]): 5 (Herbicidal ratio of 90% or more (almost completely withered)); I (Avena fatua) herbicidal effect grade (Avena fatua; [7]): 0 (Herbicidal ratio of 5% or less (almost no effect)); G (Setaria viridis) herbicidal effect grade (Setaria viridis; [7]): 2 (Herbicidal ratio of 20% or more and less than 40%); M (Abutilon theophrasti) herbicidal effect grade (Abutilon theophrasti; [7]): 3 (Herbicidal ratio of 40% or more and less than 70%); O (Chenopodium album) herbicidal effect grade (Chenopodium album; [7]): 5 (Herbicidal ratio of 90% or more (almost completely withered)); J (Alopecurus myosuroides) herbicidal effect grade (Alopecurus myosuroides; [7]): 1 (Herbicidal ratio of 5% or more and less than 20%); K (Lolium multiflorum Lam.) herbicidal effect grade (Lolium multiflorum Lam.; [7]): 1 (Herbicidal ratio of 5% or more and less than 20%); L (Apera spica-venti.) herbicidal effect grade (Apera spica-venti.; [7]): 1 (Herbicidal ratio of 5% or more and less than 20%); A (Echinochloa oryzicola Vasing.) herbicidal ratio grade [4, 8]: 1 (Herbicidal ratio of 5% or more and less than 20%); B (Scirpus juncoides) herbicidal ratio grade (Scirpus juncoides; [8]): 3 (Herbicidal ratio of 40% or more and less than 70%); C (Monochoria vaginalis) herbicidal ratio grade (Monochoria vaginalis; [8]): 0 (Herbicidal ratio of 5% or less (almost no effect))
